From patent US20240108654A1, “COMBINATION OF A T CELL THERAPY AND A DGK INHIBITOR” (Juno Therapeutics, Inc., priority 2021, published 2024)

How the values were obtained:
Assay type in all cases: cell-based, human
[1] = system: anti-CD19 CAR-expressing T cells; assay: CAR-T cell phenotype after stimulation with CAR-specific anti-idiotypic antibody (flow cytometry); conditions: 48-hour stimulation with 3 or 30 μg/mL anti-idiotypic antibody; compound 0.1-1000 nM; two donors
From the text: T cell compositions containing T cells expressing an exemplary anti-CD19 CAR were generated from leukapheresis samples from two healthy human adult donors by a process that included immunoaffinity-based selection of T cells by separately selecting CD4+ and CD8+ cells from the samples, resulting in two compositions enriched for CD4+ and CD8+ cells, respectively, per donor. Cells of the enriched CD4+ and CD8+ compositions were separately activated with anti-CD3/anti-CD28 beads and subjected to lentiviral transduction with a vector encoding an anti-CD19 CAR. […]
Prior to use, the cryopreserved CD4+ and CD8+ CAR-engineered cell compositions were thawed and combined at approximately a 1:1 CD4:CD8 ratio for each donor to prepare a combined CD4+ CAR+ and CD8+ CAR+ T cell composition. The effects of treatment with Compound 17 at various concentrations (0.1 nM, 1 nM, 10 nM, 100 nM, or 1000 nM) added at day 0 during stimulation of the combined CAR-T cell composition with a plate-bound CAR-specific anti-idiotypic antibody (see, e.g., WO2018/023100) or during co-culture with CD19-expressing cells was then assessed. […]

[2] = system: anti-CD19 CAR-expressing T cells; assay: Cytolytic function of CAR-T cells co-cultured with CD19-expressing lymphoma cells in presence of compound; conditions: co-culture with K562.CD19, Granta-519 and Raji cells, 2.5:1 effector:target, compound present
Procedure: The cytolytic function of T cells treated with Compound 17 was assessed following co-culture of the combined CAR-T cell composition with various CD19-expressing lymphoma cells at a 2.5:1 effector:target ratio in the presence of Compound 17. The target lymphoma cells were labeled with NucLight Red (NLR) to permit their tracking by microscopy. Cytolytic activity was assessed by measuring the loss of viable target cells over a period of four to seven days, as determined by red fluorescent signal (using the IncuCyte® Live Cell Analysis System, Essen Bioscience).
Triplicate values for cell compositions manufactured from the two different healthy donors are shown.

[3] = system: anti-CD19 CAR-expressing T cells; assay: Activated effector phenotype of CD4+ and CD8+ CAR-expressing cells under acute stimulation
[4] = system: anti-CD19 CAR-expressing T cells; assay: T cell viability in acute stimulation assays
[5] = system: anti-CD19 CAR-expressing T cells; assay: Activation phenotype of CAR-T cells chronically stimulated with concurrent compound treatment; conditions: seven-day chronic stimulation, concurrent compound 0.1-1000 nM
Procedure: (§1) To simulate conditions of chronic stimulation, approximately 20,000 anti-CD19 CAR-expressing T cells of a combined CAR-T cell composition produced as described in Example 1 from two healthy adult donors were incubated with 30 μg/mL of plate-bound CAR-specific anti-idiotypic antibody (see, e.g., WO2018/023100) at 37° C. for a period of seven days. During this seven-day period, engineered CAR T cells were concurrently treated with Compound 17 (0.1-1000 nM) or a vehicle control added at day 0.

[6] = system: anti-CD19 CAR-expressing T cells; assay: Cytolytic activity of CAR-T cells concurrently treated during chronic stimulation, 2D re-challenge with CD19-expressing lymphoma cells; conditions: concurrent treatment during chronic stimulation; 2D re-challenge with K562.CD19, Granta-519, Raji without compound; higher concentrations
Procedure: as §1
Stimulated CAR T cells were then re-challenged with CD19-expressing tumor cells or tumor spheroids in the absence of Compound 17, and cytolytic activity and cytokine production were assessed.
To assess cytolytic function, the stimulated CAR-T cell composition was co-cultured with various CD19-expressing lymphoma cells at a 2.5:1 effector:target ratio. The tumor cells were engineered to express NucLight Red (NLR) and tumor cell number was monitored by Incucyte®. […] Duplicate values for cell compositions manufactured from the two different healthy donors are shown.

[7] = system: anti-CD19 CAR-expressing T cells; assay: Cytolytic activity of CAR-T cells concurrently treated during chronic stimulation, 3D tumor spheroids; conditions: concurrent treatment during chronic stimulation; A549.CD19 and Granta-519 spheroids, day 9
Procedure: as §1
To further assess activity of chronically stimulated cell, the chronically stimulated CAR-T cells that had been concurrently treated with DGKi were incubated with A549 CD19+ tumor spheroids or Granta-519 tumor spheroids to rechallenge the CAR-T cells at an effector to target ratio of 1:2 for up to 14 days. The tumor spheroids were engineered to express a red fluorescent dye to permit monitoring of tumor cell lysis by microscopy during the assay.
The antigen-specific cytolytic activity of the chronically stimulated CAR-expressing T cells was assessed by monitoring fluorescence (indicative of tumor cell lysis) over time. The tumor volume (normalized to time zero) was measured as the number of red calibrated units (RCU)×μm^2 area. […] Duplicate values for cell compositions manufactured from the two different healthy donors are shown.

[8] = system: anti-CD19 CAR-expressing T cells; assay: Rescue treatment of chronically stimulated CAR-T cells: cytolytic activity, 2D co-culture with CD19-expressing lymphoma cells; conditions: rescue treatment during 2D co-culture, higher concentrations
Procedure: Anti-CD19 CAR-expressing T cells, produced as described in Example 1, were chronically stimulated with plate-bound CAR-specific anti-idiotypic antibody for seven days as described in Example 2, but in the absence of Compound 17 during chronic stimulation. Instead, chronically stimulated CAR T cells were treated with Compound 17 during re-challenge with CD19-expressing tumor cells, after which cytolytic activity and cytokine production were assessed.
The chronically stimulated CAR-T cells were incubated with various CD19-expressing lymphoma cells at a 2.5:1 effector:target ratio in the presence of DGKi (0-1000 nM). The tumor cells were labeled with NucLight Red (NLR) and tumor cell number was monitored by Incucyte®.

CC[C@H]1CN([C@@H](CC)c2ccc(C(F)(F)F)cc2)[C@H](CC)CN1c1nc(=O)n(C)c2ccc(C#N)nc12 [Compound 17, 4-((2S,5R)-2,5-diethyl-4-((S)-1-(4-(trifluoromethyl)phenyl)propyl)piperazin-1-yl)-1-methyl-2-oxo-1,2-dihydropyrido[3,2-d]pyrimidine-6-carbonitrile]
expression of CD27 and CD62L (% positive cells and MFI, presence vs. absence of compound) [1]: decreased
expression of CD69 and PD-1 (% positive cells and MFI, presence vs. absence of compound) [1]: increased
cytolytic function (percent specific lysis) [2]: did not affect cytolytic function
number of CD4+ and CD8+ CAR-expressing cells having an activated effector phenotype [3]: increased
T cell viability [4]: no impact
populations of highly activated CAR-T cells (CD69, PD-1 high) [5]: increased populations of highly activated CAR-T cells
CAR-T cell cytolytic activity (tumor cell number) [6]: decreased the cytolytic activity
CAR-T cell cytolytic activity (normalized tumor volume) [7]: modestly reduced the cytolytic activity
CAR-T cell cytolytic activity (tumor cell number) ([8]; Granta-519 cells): improved the cytolytic activity
CAR-T cell cytolytic activity (tumor cell number) ([8]; K562.CD19 cells): improved the cytolytic activity
